According to patent US20120003186A1, “METHOD FOR DEDIFFERENTIATING ADIPOSE TISSUE STROMAL CELLS” (SNU R&DB FOUNDATION, priority 2010, published 2012):

Columns and labels:
Format in all cases: cell-based, human
dedifferentiated ATSC [1] = test: Western blotting of growth-related signal proteins with inhibitor treatment; details: FIG. 9a
From the text: The inventors conducted following experiment to confirm the expression pattern of growth-related signal protein and Rex-1 in ATSC treated with hypoxia/DHP-derivative. To be specific, the expression of P-Jak2 (Phosphorylated-Janus kinase 2) and P-Stat3 (Phosphorylated-signal transducer and activator of transcription3) was observed by Western blotting using anti-P-Jak2 antibody and anti-P-Stat3 antibody in the same manner explained above in Examples 2 and 3 in cells of control group not treated with AG490 (Jak2 inhibitor, Sigma) and in cells of experimental group not treated with AG490 or treated with 20 μM or 30 μM. The expression of p-STAT3 and STAT3 was observed by Western blotting using anti-p-STAT3 antibody and anti-Stat3 antibody in the same manner of the Examples 2 and 3 in a control group not treated with AG490 and experimental group treated with hypoxia/DHP-derivative for 6 hours and then treated or not treated with AG490. The expression of p-MEK (Phosphorylated-Mitogen-activated Protein/ERK Kinase), MEK, p-ERK (Phosphorylated-Extracellular signal-regulated kinases), ERK, C-myc, p-STAT3 and STAT3 proteins was observed by Western blotting in the same manner of the Examples 2 and 3 in control group not treated with PD98059 (MEX inhibitor, Sigma) and experimental group treated with hypoxia/DHP-derivative for 6 hours and then treated or not treated with PD98059. The expression of p-P38, P38, P53 and P21 protein was observed by Western blotting in the same manner of Examples 2 and 3 in control group not treated with SB203580 (P38MAPK inhibitor, Sigma) and experimental group treated with hypoxia/DHP-derivative for 6 hours and then treated or not treated with SB203580. The antibodies to each protein were purchased from Santa Cruz. The result is illustrated in FIG. 9a.

dedifferentiated ATSC [2] = test: Real time PCR of stemness and proliferation genes with inhibitor treatment; details: FIG. 9b; for expression of Oct-4 / expression of REX1, SOX2, CDk1 and CDk2: dedifferentiated ATSC treated with inhibitor
Experimental: The expression of Rex1, CDk1 and Runx3 genes were observed by real time PCR in the same manner of the Examples 2 and 3 in cells of control group not treated with AG490 and cells of experimental group not treated with AG490 or treated with 20 μM or 30 μM. As for a quantitative control group, the expression of GAPDH (glyceraldehyde-3-phosphate dehydrogenase) was also observed.
Expressions of REX1, Oct-4, SOX2, CDk1 and CDk2 were observed by real time PCR in the same manner of Examples 2 and 3 in each of the following cases. ATSC were treated with hypoxia/DPH-derivative for 6 hours and then divided into cases including: i) sample treated with nothing; ii) sample treated with SB203580 only; iii) sample treated with PD98059 only; and iv) sample treated with SB203580 and PD98059. As for a quantitative control group, the expression of GAPDH was also confirmed. The result is illustrated in FIG. 9b.

dedifferentiated ATSC [3] = test: Colony formation with inhibitor treatment; details: dedifferentiated ATSC vs non-treated experimental group; similar to control group; FIG. 10
Experimental: The inventors conducted following experiment to confirm the actual growth of ATSC treated with hypoxia/DHP-derivative by the activity of Rex-1 and growth-related signal protein which was confirmed at Example 7-1. To be specific, cells of control group and cells of experimental group treated with HPD98059, SB203580 or AG490, or not treated were prepared, and measured for colony formation. The result is illustrated in FIG. 10.

dedifferentiated ATSC [4] = test: Cell migration with signal transmission inhibitors; details: dedifferentiated ATSC treated with inhibitor; FIG. 15
Experimental: In the developmental procedures, cell migration is considered to be critical for normal development. Accordingly, the inventors conducted experiment as explained below to confirm the in vitro migration activity of dedifferentiated ATSC. First, experimental group was cultured in a culture medium containing control cell group and DHP-derivative under hypoxia condition for 30 minutes or 6 hours and then cultured in low serum growth medium. The cultured cells were moved onto 6-transwell plate (8 μm pore size; Costar, U.S.A) coated with laminin (Chemicon, U.S.A). The respective cells were divided on an upper layer chamber, and cultured under 37° C., 5% carbon dioxide condition for 48 hours, during which the cells were left to migrate from the upper layer chamber to the lower layer chamber. The remaining, non-migrated cells were removed from the surface of the upper layer chamber and the migrated cells in the lower layer chamber were stained with Harris hematoxylin (Sigma Aldrich, U.S.A). Cells were counted from 20-selected areas for the respective cells.
The inventors conducted experiment to confirm the signal pathway that influences the in vitro migration of ATSC which were treated with hypoxia/DHP-derivative.

[5] = vs sample not treated with inhibitor

| SMILES | expression of P-Jak2 and P-Stat3 (dedifferentiated ATSC [1]; higher concentration of AG490 (20 μM or 30 μM)) | expression of Rex′1, CDK1, CDK2, Nanog and Runx3 (dedifferentiated ATSC [2]; dedifferentiated ATSC, higher concentration of AG490) | cell proliferation (colony formation) (dedifferentiated ATSC [3]) | expression of C-myc (dedifferentiated ATSC [1]; [5]) | phosphorylation of MEK (dedifferentiated ATSC [1]; [5]) | expression of Oct-4 (dedifferentiated ATSC [2]) | expression of REX1, SOX2, CDk1 and CDk2 (dedifferentiated ATSC [2]) | cell migration (dedifferentiated ATSC [4]) | expression of P53 and P21 (dedifferentiated ATSC [1]; [5]) | phosphorylation of P38 (dedifferentiated ATSC [1]; [5]) |
| --- | --- | --- | --- | --- | --- | --- | --- | --- | --- | --- |
| N#C/C(=C/c1ccc(O)c(O)c1)C(=O)NCc1ccccc1 [AG490] | decreased expression | decreased expression | decreased cell proliferation |  |  |  |  |  |  |  |
| COc1cccc(-c2cc(=O)c3ccccc3o2)c1N [PD98059] |  |  | decreased cell proliferation | decreased expression | increased phosphorylation | not changed | decreased | noticeably decreased |  |  |
| C[S+]([O-])c1ccc(-c2nc(-c3ccncc3)c(-c3ccc(F)cc3)[nH]2)cc1 (stereo not drawn) [SB203580] |  |  | decreased cell proliferation |  |  | not changed | decreased | noticeably decreased | increased expression | decreased phosphorylation |
